By IC50 is commonly meant the midpoint of a concentration-inhibition curve.

For this experiment, the target named is T1, HPK1 kinase (aa1-346, Life Technologies) (Homo sapiens, UniProt Q92918).
T1 construct: HPK1 kinase (aa1-346, Life Technologies); purchased Life Technologies
T1 sequence (Q92918 1-346): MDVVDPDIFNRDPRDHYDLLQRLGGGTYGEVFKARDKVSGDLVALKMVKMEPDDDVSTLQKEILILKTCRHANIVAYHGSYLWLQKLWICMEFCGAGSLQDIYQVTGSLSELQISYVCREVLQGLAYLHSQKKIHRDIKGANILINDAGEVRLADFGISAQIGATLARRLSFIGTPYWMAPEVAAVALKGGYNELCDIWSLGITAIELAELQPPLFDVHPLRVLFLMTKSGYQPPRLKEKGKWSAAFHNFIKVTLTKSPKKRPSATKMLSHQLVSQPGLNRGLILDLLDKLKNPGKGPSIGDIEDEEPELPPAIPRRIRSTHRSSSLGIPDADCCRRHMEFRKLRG
The experiment in a line: HPK1 Kinase Activity Assay at 1 mM ATP (TR-FRET). The format is biochemical. The note with it: HPK1 40 nM, read-out: Enzymatic activity IC50. How it is done: HPK1 Kinase Activity Assay at 1 mM ATP
Compounds disclosed herein were tested for inhibition of HPK1 kinase (aa1-346, Life Technologies) activity in assays based on the time-resolved fluorescence-resonance energy transfer (TR-FRET) methodology. The assays were carried out in 384-well low volume black plates in a reaction mixture containing HPK1 kinase (40 nM), 1 mM ATP, 0.5 μM STK1 substrate and 0-10 μM compound in buffer containing 50 mM HEPES, 0.01% BSA, 0.1 mM Orthovanadate, 10 mM MgCl2, 1 mM DTT, pH=7.0, 0.005% Tween-20. The kinase was incubated with the compounds disclosed herein or DMSO for 60 minutes at room temperature and the reaction was initiated by the addition of ATP and STK1 substrate. After reaction at room temperature for 120 minutes, an equal volume of stop/detection solution was added according to the manufacturer's instruction (CisBio). The stop/detection solution contained STK Antibody-Cryptate and XL665-conjugated streptavidin in Detection Buffer. The TR-FRET signals (ratio of fluorescence emission at 665 nm over emission at 620 nm with excitation at 337 nm wavelength) were recorded on a PHERAstar FS plate reader (BMG Labtech). Phosphorylation of STK1 substrate led to the binding of STK Antibody-Cryptate to the biotinylated STK1 substrate, which places fluorescent donor (Eu^3+ cryptate) in close proximity to the accepter (Streptavidin-XL665), thus resulting in a high degree of fluorescence resonance energy transfer. The inhibition of HPK1 in presence of increasing concentrations of compounds was calculated based on the ratio of fluorescence at 665 nm to that at 620 nm. The IC50 for each compound was derived from fitting the data to the four-parameter logistic equation by Graphpad Prism software.
For the compound `Cc1cc(-c2c[nH]c3ncc(-c4cc(C)c5c(c4)CN(C)CC5)nc23)ccc1C(=O)N(C)C[C@@H](C)O` [Example 4, (R)-4-(2-(2,5-dimethyl-1,2,3,4-tetrahydroisoquinolin-7-yl)-5H-pyrrolo[2,3-b]pyrazin-7-yl)-N-(2-hydroxypropyl)-N, 2-dimethylbenzamide], the IC50 is 92 nM.

Turning to `Cc1cc(-c2cnc3[nH]cc(-c4ccc(C(=O)N(C)C[C@H](C)O)cc4)c3n2)cc2c1CCN(C)C2` [Example 5, (S)-4-(2-(2,5-dimethyl-1,2,3,4-tetrahydroisoquinolin-7-yl)-5H-pyrrolo[2,3-b]pyrazin-7-yl)-N-(2-hydroxypropyl)-N-methylbenzamide], the IC50 turned out to be 21 nM.

Turning to `COc1cc(-c2cnc3[nH]cc(-c4cc(F)c(C(=O)N(C)C[C@@H]5CCOC5)c(F)c4)c3n2)cc2c1CN(C)CC2` [Example 7A, (S)-2,6-difluoro-4-(2-(8-methoxy-2-methyl-1,2,3,4-tetrahydroisoquinolin-6-yl)-5H-pyrrolo[2,3-b]pyrazin-7-yl)-N-methyl-N-((tetrahydrofuran-3-yl)methyl)benzamide], the IC50 was 34 nM.

Turning to `COc1cc(-c2cnc3[nH]cc(-c4cc(F)c(C(=O)N(C)C[C@H]5CCOC5)c(F)c4)c3n2)cc2c1CN(C)CC2` [Example 7B, (R)-2,6-difluoro-4-(2-(8-methoxy-2-methyl-1,2,3,4-tetrahydroisoquinolin-6-yl)-5H-pyrrolo[2,3-b]pyrazin-7-yl)-N-methyl-N-((tetrahydrofuran-3-yl)methyl)benzamide], the IC50 was determined as 31 nM.

Regarding `Cc1cc(-c2cnc3[nH]cc(-c4ccc(C(=O)N(C)C[C@@H](C)O)cc4)c3n2)cc2c1CCN(C)C2` [Example 8, (R)-4-(2-(2,5-dimethyl-1,2,3,4-tetrahydroisoquinolin-7-yl)-5H-pyrrolo[2,3-b]pyrazin-7-yl)-N-(2-hydroxypropyl)-N-methylbenzamide], the IC50 amounted to 36 nM.

On to `Cc1cc(-c2cnc3[nH]cc(-c4ccc(C(=O)N(C)C[C@@H](C)O)cc4)c3n2)cc2c1CCN(CCN1CCOCC1)C2` [Example 9, (R)—N-(2-hydroxypropyl)-N-methyl-4-(2-(5-methyl-2-(2-morpholinoethyl)-1,2,3,4-tetrahydroisoquinolin-7-yl)-5H-pyrrolo[2,3-b]pyrazin-7-yl)benzamide], for which the concentration for half-maximal inhibition (IC50) was determined as 62 nM.

As for `Cc1cc(-c2c[nH]c3ncc(-c4cc(C)c5c(c4)CN(C)CC5)nc23)ccc1C(=O)N(C)C[C@H](C)O` [Example 11, (S)-4-(2-(2,5-dimethyl-1,2,3,4-tetrahydroisoquinolin-7-yl)-5H-pyrrolo[2,3-b]pyrazin-7-yl)-N-(2-hydroxypropyl)-N, 2-dimethylbenzamide], the IC50 was 74 nM.

With `COc1cc(-c2cnc3[nH]cc(-c4ccc(C(=O)N(C)C[C@H](C)O)c(C)c4)c3n2)cc2c1CCN(C)C2` [Example 12, (S)—N-(2-hydroxypropyl)-4-(2-(5-methoxy-2-methyl-1,2,3,4-tetrahydroisoquinolin-7-yl)-5H-pyrrolo[2,3-b]pyrazin-7-yl)-N, 2-dimethylbenzamide], the half-inhibitory concentration (IC50) was found to be 52 nM.

`Cc1cc(-c2cnc3[nH]cc(-c4ccc(C(=O)N(C)C[C@H](C)O)cc4)c3n2)cc2c1CCN(CCN1CCOCC1)C2` [Example 13, (S)—N-(2-hydroxypropyl)-N-methyl-4-(2-(5-methyl-2-(2-morpholinoethyl)-1,2,3,4-tetrahydroisoquinolin-7-yl)-5H-pyrrolo[2,3-b]pyrazin-7-yl)benzamide]: the IC50 is 45 nM.

Consider `CN[C@H]1CCN(C(=O)c2ccc(-c3c[nH]c4ncc(-c5cc(C)c6c(c5)CN(C)CC6)nc34)cc2)C1` [Example 14, (S)-(4-(2-(2,5-dimethyl-1,2,3,4-tetrahydroisoquinolin-7-yl)-5H-pyrrolo[2,3-b]pyrazin-7-yl)phenyl) (3-(methylamino)pyrrolidin-1-yl)methanone], for which the IC50 stood at 12 nM.

As for `Cc1cc(-c2c[nH]c3ncc(-c4cc(C)c5c(c4)CN(C)CC5)nc23)ccc1C(=O)N1CC(O)C1` [Example 17, (4-(2-(2,5-dimethyl-1,2,3,4-tetrahydroisoquinolin-7-yl)-5H-pyrrolo[2,3-b]pyrazin-7-yl)-2-methylphenyl) (3-hydroxyazetidine-1-yl)methanone], the 50% inhibitory concentration (IC50) stood at 24 nM.

Regarding `CN[C@H]1CCN(C(=O)c2ccc(-c3c[nH]c4ncc(-c5cc6c(c(OC)c5)CCN(C)C6)nc34)cc2)C1` [Example 18, (S)-(4-(2-(5-methoxy-2-methyl-1,2,3,4-tetrahydroisoquinolin-7-yl)-5H-pyrrolo[2,3-b]pyrazin-7-yl)phenyl) (3-(methylamino)pyrrolidin-1-yl)methanone], the IC50 amounted to 7 nM.

Regarding `Cc1cc(-c2cnc3[nH]cc(-c4ccc(C(=O)N5CC6(COC6)C5)cc4)c3n2)cc2c1CCN(C)C2` [Example 19, (4-(2-(2,5-dimethyl-1,2,3,4-tetrahydroisoquinolin-7-yl)-5H-pyrrolo[2,3-b]pyrazin-7-yl)phenyl) (2-oxa-6-azaspiro[3.3]heptan-6-yl)methanone], the IC50 turned out to be 13 nM.

For the compound `CC(=O)Nc1cc(-c2c[nH]c3ncc(-c4cc(C)c5c(c4)CN(C)CC5)nc23)ccc1C(=O)N(C)C` [Example 21, 2-acetamido-4-(2-(2,5-dimethyl-1,2,3,4-tetrahydroisoquinolin-7-yl)-5H-pyrrolo[2,3-b]pyrazin-7-yl)-N, N-dimethylbenzamide], the half-inhibitory concentration (IC50) came to 75 nM.

As for `COc1cc(-c2cnc3[nH]cc(-c4ccc(C(=O)N(C)C)cc4)c3n2)cc2c1CN(C)CC2` [Example 22, 4-(2-(8-methoxy-2-methyl-1,2,3,4-tetrahydroisoquinolin-6-yl)-5H-pyrrolo[2,3-b]pyrazin-7-yl)-N, N-dimethylbenzamide], the IC50 worked out at 11 nM.

Consider `Cc1cc(-c2c[nH]c3ncc(-c4cc(C)c5c(c4)CN(CCC(=O)N[C@H]4CC[C@H](O)CC4)CC5)nc23)ccc1C(=O)N(C)C` [Example 23, 4-(2-(2-(3-((trans-4-hydroxycyclohexyl)amino)-3-oxopropyl)-5-methyl-1,2,3,4-tetrahydroisoquinolin-7-yl)-5H-pyrrolo[2,3-b]pyrazin-7-yl)-N, N, 2-trimethylbenzamide], for which the IC50 was determined as 122 nM.

For the compound `Cc1cc(-c2c[nH]c3ncc(-c4cc(C)c5c(c4)CN(CCC(=O)N4CCN(C)CC4)CC5)nc23)ccc1C(=O)N(C)C` [Example 24, N, N, 2-trimethyl-4-(2-(5-methyl-2-(3-(4-methylpiperazin-1-yl)-3-oxopropyl)-1,2,3,4-tetrahydroisoquinolin-7-yl)-5H-pyrrolo[2,3-b]pyrazin-7-yl)benzamide], the IC50 turned out to be 75 nM.

Turning to `CNC(=O)CCN1CCc2c(C)cc(-c3cnc4[nH]cc(-c5ccc(C(=O)N(C)C)c(C)c5)c4n3)cc2C1` [Example 25, N, N, 2-trimethyl-4-(2-(5-methyl-2-(3-(methylamino)-3-oxopropyl)-1,2,3,4-tetrahydroisoquinolin-7-yl)-5H-pyrrolo[2,3-b]pyrazin-7-yl)benzamide], the IC50 is 49 nM.

Take `Cc1cc(-c2c[nH]c3ncc(-c4cc(C)c5c(c4)CN(CCC(=O)N(C)C)CC5)nc23)ccc1C(=O)N(C)C` [Example 26, 4-(2-(2-(3-(dimethylamino)-3-oxopropyl)-5-methyl-1,2,3,4-tetrahydroisoquinolin-7-yl)-5H-pyrrolo[2,3-b]pyrazin-7-yl)-N, N, 2-trimethylbenzamide]: the IC50 stood at 63 nM.

(Values after patent publication US12454534B2, “Pyrrolo[2,3-b]pyrazines as HPK1 inhibitor and the use thereof” (BEIGENE, LTD., priority 2019, dated 2025).)
